Read-outs that look alike come from different tables or passages of the source.
Tests used:
[1] = test system: RS4;11 cells; assay: RS4;11 cell viability assay (CellTiter Glo); assay type: cell-based; settings: acute lymphoblastic leukemia cell line RS4;11, 10% human serum, 48 hours
Source text: The acute lymphoblastic leukemia (ALL) cell line RS4;11 was used as the primary human cell line to assess the cellular activity of Bcl-2 selective agents in vitro and their efficacy in vivo. Previous studies have shown by BH3 profiling, a mitochondrial assay that classifies blocks in the intrinsic apoptotic pathway, that RS4;11 cells were highly dependant on BCL-2 for survival and sensitive to the Bcl-2 family member inhibitor ABT-737 (Blood, 2008, Vol. III, 2300-2309).
RS4;11 cells were cultured in RPMI-1640 supplemented with 2 mM L-glutamine, 10% FBS, 1 mM sodium pyruvate, 2 mM HEPES, 1% penicillin/streptomycin (Invitrogen), 4.5 g/L glucose and maintained at 37 C containing 5% CO2. To test for the cellular activity of compounds in vitro, cells were treated at 50,000 cells per well in 96-well microliter plates in the presence of 10% human serum for 48 hours in a humidified chamber with 5% CO2. Cell cytotoxicity EC50 values were assessed using CellTiter Glo (Promega) according to the manufacturers recommendations. The EC50 values were determined as a percentage of viable cells following treatment compared to the untreated control cells.

[2] = Solubility determination in aqueous media; settings: for solubility: phosphate buffer, pH 7.4, aqueous buffer, thermodynamic from solid
Method: Reagents used included 0.1 N HCl, J T Baker Lot G08515; and 50 mM Phosphate pH 7.4, μ=0.155 w/NaCl, NB93214-089, Equipment/Instruments used included balance: Mettler Toledo, UMX2, LC805269; Rainin Pipette; 1000 μL RF09683 μL, 200 μL, RF20783; water bath: Vankel, LC 954896, set at 25° C. and 25 RPM, Thermometer: TB085699); and water bath: Vankel, LC 127535, set at 37° C. and 25 RPM, Thermometer: TB096544).
Examples were tested in aqueous media at 25° C. or 37° C. Excess amount of the bulk drug was weighed out and mixed with an aliquot of target media in a clear glass vial. The vial was sealed with cap and wrapped with aluminum foil, then tumbled in a 25° C. or 37° C. water bath as appropriate. When equilibration was completed, she samples were removed from the water bath and the final pH's were measured. The suspensions were filtered through 4 mm, 0.2 μm Millex-LG syringe filters (hydrophilic PTFE membrane, Millipore, Lot N9JN70696). Each filter was used only for one sample and the first three droplets were discarded. The filtrate was assayed after appropriate dilution with the same solvent as used for stock solution. Three replicates were prepared. The concentration of the sample was calculated against the calibration curve for the compound.

[3] = target: GST-Bcl-2 (Homo sapiens (Human), UniProt P10415); assay: Time Resolved-Fluorescence Resonance Energy Transfer (TR-FRET) Bcl-2 binding assay; settings: F-Bak peptide probe 100 nM, GST-Bcl-2 1 nM, Tb-anti-GST 1 nM; Wang's equation
Method: Determination of the utility of compounds having Formula (I) as binders to and inhibitors of anti-apoptotic Bcl-2 proteins was performed using the Time Resolved-Fluorescence Resonance Energy Transfer (TR-FRET) Assay. Tb-anti-GST antibody was purchased from Invitrogen (Catalog No. PV4216). Representative compounds were serially diluted in dimethyl sulfoxide (DMSO) starting at 50 μM (2× starting concentration; 10% DMSO) and 10 μL were transferred into a 384-well plate. […] For each assay, the probe/antibody and protein/probe/antibody were included on each assay plate as negative and positive controls, respectively. Fluorescence was measured on the ENVISION plate reader (Perkin Elmer) using a 340/35 nm excitation filter and 520/525 (F-Bak peptide) and 495/510 nm (Tb-labeled anti-Histidine antibody) emission filters. Inhibition constants (Ki) are shown in TABLE 2 below and were determined using Wang's equation (Wang Z.-X. An Exact Mathematical Expression For Describing Competitive Binding Of Two Different Ligands To A Protein Molecule. FEBS Lett. 1995, 360:111-4).

GST-Bcl-2, sequence (P10415 whole entry): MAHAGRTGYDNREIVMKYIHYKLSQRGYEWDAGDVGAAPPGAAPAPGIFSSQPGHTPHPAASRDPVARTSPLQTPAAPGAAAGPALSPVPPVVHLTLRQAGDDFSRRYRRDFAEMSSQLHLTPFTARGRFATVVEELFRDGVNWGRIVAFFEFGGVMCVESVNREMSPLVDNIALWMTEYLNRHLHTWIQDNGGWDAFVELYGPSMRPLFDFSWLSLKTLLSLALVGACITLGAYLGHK

Compound	Aqueous Solubility (pH 7.4) [ug/mL]	EC50 [1] [nM]	solubility [2] [µg/mL]	Ki [3] [nM]	Aqueous Solubility (pH 7.4) ([2]; 50 mM phosphate pH 7.4, 25° C. or 37° C.) [ug/mL]
(5-{5-(4-{[2-(4-chlorophenyl)-4,4-dimethylcyclohex-1-en-1-yl]methyl}piperazin-1-yl)-2-[({4-[(4-fluorotetrahydro-2H-pyran-4-yl)methoxy]-3-nitrophenyl}sulfonyl)carbamoyl]phenoxy}-7H-pyrrolo[2,3-b]pyridin-7-yl)methyl dihydrogen phosphate [Example 3]	>10850	41			
CC(C)(CO)CNc1ccc(S(=O)(=O)NC(=O)c2ccc(N3CCN(CC4=C(c5ccc(Cl)cc5)CC(C)(C)CC4)CC3)cc2Oc2cnc3[nH]ccc3c2)cc1[N+](=O)[O-] [Example 6, 4-(4-{[2-(4-chlorophenyl)-4,4-dimethylcyclohex-1-en-1-yl]methyl}piperazin-1-yl)-N-({4-[(3-hydroxy-2,2-dimethylpropyl)amino]-3-nitrophenyl}sulfonyl)-2-(1H-pyrrolo[2,3-b]pyridin-5-yloxy)benzamide]			< 1		
3-[(4-{[4-(4-{[2-(4-chlorophenyl)-4,4-dimethylcyclohex-1-en-1-yl]methyl}piperazin-1-yl)-2-(1H-pyrrolo[2,3-b]pyridin-5-yloxy)benzoyl]sulfamoyl}-2-nitrophenyl)amino]-2,2-dimethylpropyl dihydrogen phosphate [Example 4]	169	> 1000		< 0.01	
trans-4-[(4-{[4-(4-{[2-(4-chlorophenyl)-4,4-dimethylcyclohex-1-en-1-yl]methyl}piperazin-1-yl)-2-(1H-pyrrolo[2,3-b]pyridin-5-yloxy)benzoyl]sulfamoyl}-2-nitrophenoxy)methyl]cyclohexyl dihydrogen phosphate [Example 5]	>6580	42			
CO[C@H]1CC[C@H](CNc2ccc(S(=O)(=O)NC(=O)c3ccc(N4CCN(CC5=C(c6ccc(Cl)cc6)CC(C)(C)CC5)CC4)cc3Oc3cc4ccnc-4n(COP(=O)(O)O)c3)cc2[N+](=O)[O-])CC1 [Example 1, {5-[5-(4-{[2-(4-chlorophenyl)-4,4-dimethylcyclohex-1-en-1-yl]methyl}piperazin-1-yl)-2-{[(4-{[(trans-4-methoxycyclohexyl)methyl]amino}-3-nitrophenyl)sulfonyl]carbamoyl}phenoxy]-7H-pyrrolo[2,3-b]pyridin-7-yl}methyl dihydrogen phosphate]		310		< 0.01	>1159
CC1(C)CCC(CN2CCN(c3ccc(C(=O)NS(=O)(=O)c4ccc(OC[C@H]5CC[C@H](O)CC5)c([N+](=O)[O-])c4)c(Oc4cnc5[nH]ccc5c4)c3)CC2)=C(c2ccc(Cl)cc2)C1 [Example 7, Trans-4-(4-{[2-(4-chlorophenyl)-4,4-dimethylcyclohex-1-en-1-yl]methyl}piperazin-1-yl)-N-({4-[(4 hydroxycyclohexyl)methoxy]-3-nitrophenyl}sulfonyl)-2-(1H-pyrrolo[2,3-b]pyridin-5-yloxy)benzamide]			< 1		
(5-{5-(4-{[2-(4-chlorophenyl)-4,4-dimethylcyclohex-1-en-1-yl]methyl}piperazin-1-yl)-2-[({3-nitro-4-[(tetrahydro-2H-pyran-4-ylmethyl)amino]phenyl}sulfonyl)carbamoyl]phenoxy}-7H-pyrrolo[2,3-b]pyridin-7-yl)methyl dihydrogen phosphate [Example 2]	>4820	180		< 0.01	

Further lines, with some results ahead:

Aqueous Solubility (pH 7.4) [ug/mL]	EC50 [1] [nM]	solubility [2] [µg/mL]	Compound	Ki [3] [nM]	Aqueous Solubility (pH 7.4) ([2]; 50 mM phosphate pH 7.4, 25° C. or 37° C.) [ug/mL]
		< 4	CC1(C)CCC(CN2CCN(c3ccc(C(=O)NS(=O)(=O)c4ccc(NCC5CCOCC5)c([N+](=O)[O-])c4)c(Oc4cnc5[nH]ccc5c4)c3)CC2)=C(c2ccc(Cl)cc2)C1 [Example 2B, 4-(4-{[2-(4-chlorophenyl)-4,4-dimethylcyclohex-1-en-1-yl]methyl}piperazin-1-yl)-N-({3-nitro-4-[(tetrahydro-2H-pyran-4-ylmethyl)amino]phenyl}sulfonyl)-2-(1H-pyrrolo[2,3-b]pyridin-5-yloxy)benzamide]		
		< 1	CC1(C)CCC(CN2CCN(c3ccc(C(=O)NS(=O)(=O)c4ccc(OCC5(F)CCOCC5)c([N+](=O)[O-])c4)c(Oc4cnc5[nH]ccc5c4)c3)CC2)=C(c2ccc(Cl)cc2)C1 [Example 3E, 4-(4-{[2-(4-chlorophenyl)-4,4-dimethylcyclohex-1-en-1-yl]methyl}piperazin-1-yl)-N-({4-[(4-fluorotetrahydro-2H-pyran-4-yl)methoxy]-3-nitrophenyl}sulfonyl)-2-(1H-pyrrolo[2,3-b]pyridin-5-yloxy)benzamide]		
		< 1	CO[C@H]1CC[C@H](CNc2ccc(S(=O)(=O)NC(=O)c3ccc(N4CCN(CC5=C(c6ccc(Cl)cc6)CC(C)(C)CC5)CC4)cc3Oc3cnc4[nH]ccc4c3)cc2[N+](=O)[O-])CC1 [Example 1M, Trans-4-(4-{[2-(4-chlorophenyl)-4,4-dimethylcyclohex-1-en-1-yl]methyl}piperazin-1-yl)-N-[(4-{[(4-methoxycyclohexyl)methyl]amino}-3-nitrophenyl)sulfonyl]-2-(1H-pyrrolo[2,3-b]pyridin-5-yloxy)benzamide]		
